Assay results reported in patent US20020009527A1, “CONTAMINATION-RESISTANT ANIMAL FEEDSTUFFS” (BOBBY J BLAND, priority 1992, published 2002).
Read-outs that look alike come from different tables or passages of the source.

What was measured:
[1] = test system: E. coli
Experimental: The term “resistant to contamination by pathogenic bacteria” means that a challenge with 1000 colonies per gram of feed results in death of substantially all the bacteria within 48 to 72 hours. […] Sampling procedures for obtaining representative samples of feed are described in Example 16, so that the coefficient of variation can be readily determined.

[2] = 1.0 pound formaldehyde (dry wt.) per ton of feed
Experimental: Chickens (1,400,000 broilers) were raised with steam pelletized formaldehyde-treated feed and 250,000 broilers were raised with conventional steam pelletized feed. This test was conducted from the time the chicks were a day old until market weight which is 7 to 8 weeks.

[3] = test system: Escherichia coli
Experimental: Poultry starter mash (8000 g) was distributed in one gallon glass jars (2000 g/jar). The mash was autoclaved at 121° C. and 15 psi for one hour on two consecutive days. The sterile poultry starter mash was mixed thoroughly and subsampled using a Humboldt sample splitter to obtain seven 500 g subsamples. […] After treatment the samples were stored at 24° C. for 7 days prior to the recontamination.
The identity of an isolate of Escherichia coli obtained from poultry feed was confirmed by biochemical and serological tests. The isolate was used to inoculate milk dilution bottles containing 90 ml of nutrient both. The inoculated bottles were incubated at 35° C. for 18-24 hours. After incubation the contents of several milk dilution bottles were combined in a sterile 1000 ml Erlenmeyer flask, mixed and the level of Escherichia coli determined by serially diluting the nutrient broth with buffered phosphate. The dilutions were plated onto MacConkey's agar. The inoculated plates were incubated at 35° C. for 18-24 hours. After incubation, the number of E. coli colonies was counted.
After seven days of storage, the subsamples (500 g) were individually inoculated with 20 ml of a nutrient broth culture of E. coli (10^6 colonies/ml). The inoculated feed was transferred to sterile one quart containers with screw cap lids. After 24 hours incubation at 25° C., the treatment samples were split to obtain log subsamples. Each subsample was placed into a milk dilution bottle containing 90 ml of buffered phosphate. The bottles were placed on a wrist action shaker and agitated for 30 minutes. The samples were serially diluted with buffered phosphate and the dilutions plated onto MacConkey's agar (MA) or Hektoen Enteric agar (HEA). The inoculated plates were incubated at 35° C. for 18-24 hours. After incubation, the number of E. coli colonies was counted. […] In this procedure a 25 g subsample was incubated in 225 ml lactose broth for 18-20 hours at 35° C. The inoculated broth was streaked on plates of MacConkey's agar and incubated for 24 hours at 35° C.
The procedure of Example 8 was repeated using an inoculum containing 10^4 colonies/ml of E. coli.

[4] = test system: Salmonella typhimurium; settings: hydraulic nozzle; 1.32 lb/ton; inoculated after 7 days storage; 24 h incubation
Experimental: Poultry starter mash was distributed in one gallon glass jars (2000 g/jar). The mash was autoclaved at 121° C. and 15 psi for one hour on two consecutive days. The sterile poultry starter mash was mixed thoroughly and subsampled using a Humboldt sample splitter to obtain seven 500 g subsamples. […] After treatment the samples were stored in paper bags at 24° C. prior to the recontamination.
An isolate of Salmonella typhimurium was obtained from poultry feed and was serotyped by the United States Department of Agriculture (USDA) National Veterinary Services Laboratory in Ames, Iowa. The isolate was used to inoculate milk dilution bottles containing 90 ml of nutrient broth. The inoculated bottles were incubated at 35° C. for 18-24 hours. After incubation, the contents of several milk dilution were combined in a sterile 1000 ml Erlenmeyer flask and mixed. The level of Salmonella typhimurium was determined by serially diluting the nutrient broth with buffered phosphate solution and the dilutions plated on modified lysine iron agar. The inoculated plates were incubated at 35° C. for 18-24 hours. After incubation, the number of Salmonella typhimurium colonies was counted.
After 7 days of storage, the subsamples of poultry starter mash (500 g) were individually inoculated with 20 ml of the nutrient broth culture of S. typhimurium (10^3 colonies/gram). […]

[5] = test system: Escherichia coli; settings: fine mist (43 microns); all quantity levels
Experimental: A sterilized poultry starter mash (500 grams/treatment quantity level) was treated with 37 wt. % formaldehyde solution in quantities of 0.66, 1.33 and 2.00 pounds dry weight of formaldehyde per ton. One set of samples was treated with a coarse spray (270 microns) at 1.8 gal/hr and another was treated with fine mist (43 microns) at 25.5 gal/hr. Each sample of 500 grams was challenged with 20 ml of a liquid inoculum of Escherichia coli (10^6 colonies/ml) one week after treatment.

C=O [Formaldehyde, formaldehyde]
resistance to contamination (time) ([1]; 2 lbs. dry wt. of formaldehyde/ton, 2.0% CV): about 60 days
resistance to contamination (time) ([1]; 4 lbs. dry wt. of formaldehyde per ton of finished feed, 7% CV): about 30 days
MORTALITY ([2]; broilers, day old to market weight (7 to 8 weeks)): 6%
FEED CONVERSION ([2]; pounds of feed required to produce one pound live weight gain): 2.25
E. coli colonies/g ([3]; atomizing nozzle, 0.66 lb/ton, inoculum 10^6 colonies/ml (Example 8)): 1.11 × 10^2 COLONIES/GRAM
E. coli colonies/g ([3]; hydraulic nozzle, 0.66 lb/ton, inoculum 10^4 colonies/ml (Example 9)): 8.78 × 10^3 COLONIES/GRAM
E. coli colonies/g ([3]; hydraulic nozzle, 0.66 lb/ton, inoculum 10^6 colonies/ml (Example 8)): 2.74 × 10^5 COLONIES/GRAM
E. coli colonies/g ([3]; hydraulic nozzle, 1.32 lb/ton, inoculum 10^4 colonies/ml (Example 9)): 4.33 × 10^3 COLONIES/GRAM
E. coli colonies/g ([3]; hydraulic nozzle, 1.32 lb/ton, inoculum 10^6 colonies/ml (Example 8)): 3.67 × 10^3 COLONIES/GRAM
E. coli colonies/g ([3]; hydraulic nozzle, 2.00 lb/ton, inoculum 10^4 colonies/ml (Example 9)): 3.33 × 10^2 COLONIES/GRAM
E. coli colonies/g ([3]; hydraulic nozzle, 2.00 lb/ton, inoculum 10^6 colonies/ml (Example 8)): 1.04 × 10^2 COLONIES/GRAM
S. typhimurium colonies per gram of feed [4]: 2.94 × 10^2 COLONIES/GRAM
further time free of detectable E. coli (test then discontinued) [5]: 60 days
time after inoculation until free of detectable E. coli [5]: ≤ 48 h
